This is an account of results in ChEMBL document CHEMBL5370549, “Optimization and evaluation of pyridinyl vinyl sulfones as Nrf2 activator for the antioxidant and anti-inflammatory effects” (Eur J Med Chem, 2023).

The target of one data set is CYP2C19 (Homo sapiens, UniProt P33261). As to the kind of experiment: Inhibition of CYP2C19 (unknown origin) assessed as enzyme activity at 10 uM relative to control. In kind it is ADME. More on the design: scale not given: the % may be the effect or the level left. Conditions: read-out: Activity.
Chain of CYP2C19 (P33261 whole entry): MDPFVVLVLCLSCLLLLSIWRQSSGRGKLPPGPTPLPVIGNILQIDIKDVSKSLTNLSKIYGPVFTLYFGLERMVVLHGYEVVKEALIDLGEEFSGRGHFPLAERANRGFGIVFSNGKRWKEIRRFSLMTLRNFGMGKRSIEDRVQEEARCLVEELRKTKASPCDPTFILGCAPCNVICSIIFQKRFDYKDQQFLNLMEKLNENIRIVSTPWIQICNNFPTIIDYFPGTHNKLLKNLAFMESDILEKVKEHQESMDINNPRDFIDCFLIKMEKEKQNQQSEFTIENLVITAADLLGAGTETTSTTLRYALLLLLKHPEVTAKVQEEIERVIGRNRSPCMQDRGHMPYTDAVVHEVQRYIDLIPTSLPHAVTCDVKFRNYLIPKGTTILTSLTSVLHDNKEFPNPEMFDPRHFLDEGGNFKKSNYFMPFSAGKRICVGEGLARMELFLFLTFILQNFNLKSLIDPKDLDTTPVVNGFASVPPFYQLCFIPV
The nature of data set [1]: Metabolic stability of the compound in mouse liver microsomes assessed as parent compound remaining measured after 30 mins. In kind it is ADME, Microsome. The note with it: read-out: Stability. (In general: Liver microsomes are vesicles of endoplasmic reticulum, rich in cytochrome P450 enzymes.)
The next data set deals with CYP2D6 (Homo sapiens, UniProt P10635). As to the kind of experiment: Inhibition of CYP2D6 (unknown origin) assessed as enzyme activity at 10 uM relative to control. The note with it: read-out: Activity. In kind it is ADME. Further details: scale not given: the % may be the effect or the level left.
Chain of CYP2D6 (P10635 whole entry): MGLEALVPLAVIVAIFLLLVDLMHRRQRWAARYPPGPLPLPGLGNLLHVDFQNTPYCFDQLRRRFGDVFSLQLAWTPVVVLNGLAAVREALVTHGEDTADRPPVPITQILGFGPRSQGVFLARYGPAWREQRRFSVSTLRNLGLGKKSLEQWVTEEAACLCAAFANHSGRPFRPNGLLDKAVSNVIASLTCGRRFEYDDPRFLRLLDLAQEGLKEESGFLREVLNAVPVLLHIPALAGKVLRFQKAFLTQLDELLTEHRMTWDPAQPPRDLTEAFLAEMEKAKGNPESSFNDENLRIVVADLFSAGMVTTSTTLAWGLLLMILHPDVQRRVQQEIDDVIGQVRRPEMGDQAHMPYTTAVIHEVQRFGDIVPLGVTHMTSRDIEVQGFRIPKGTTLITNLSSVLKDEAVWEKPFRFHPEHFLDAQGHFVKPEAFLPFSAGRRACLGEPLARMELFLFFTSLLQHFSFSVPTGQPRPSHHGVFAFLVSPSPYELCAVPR
Data set [2] is described as follows: Metabolic stability of the compound in human plasma assessed as parent compound remaining measured after 30 mins. The class given is ADME, cell-free. Conditions: read-out: Stability.
Another data set has as its target T1, CYP1A2 (Homo sapiens, UniProt P05177).
T1 sequence (P05177 whole entry): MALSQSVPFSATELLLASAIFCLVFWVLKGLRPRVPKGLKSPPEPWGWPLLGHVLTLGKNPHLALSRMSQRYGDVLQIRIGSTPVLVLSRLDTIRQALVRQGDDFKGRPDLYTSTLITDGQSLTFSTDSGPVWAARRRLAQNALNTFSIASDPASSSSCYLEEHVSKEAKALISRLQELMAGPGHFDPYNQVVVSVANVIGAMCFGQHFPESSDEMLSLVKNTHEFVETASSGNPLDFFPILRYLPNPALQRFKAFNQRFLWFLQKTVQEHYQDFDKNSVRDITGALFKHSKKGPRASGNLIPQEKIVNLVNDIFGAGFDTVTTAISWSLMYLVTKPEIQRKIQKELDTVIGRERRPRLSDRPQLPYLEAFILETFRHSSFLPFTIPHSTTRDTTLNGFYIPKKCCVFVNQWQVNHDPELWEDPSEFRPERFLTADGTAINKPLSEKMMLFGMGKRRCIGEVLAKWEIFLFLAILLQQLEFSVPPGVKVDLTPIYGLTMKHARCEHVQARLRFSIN
As to the kind of experiment: Inhibition of CYP1A2 (unknown origin) assessed as enzyme activity at 10 uM relative to control. The class given is ADME. More on the design: scale not given: the % may be the effect or the level left. Conditions: read-out: Activity.

Data set [3] can be described thus: Metabolic stability of the compound in rat plasma assessed as parent compound remaining measured after 30 mins. The class given is ADME, cell-free. Conditions: read-out: Stability.
In a further data set the target is CYP2C9 (Homo sapiens, UniProt P11712). The experiment in a line: Inhibition of CYP2C9 (unknown origin) assessed as enzyme activity at 10 uM relative to control. In kind it is ADME. Further details: scale not given: the % may be the effect or the level left. The note with it: read-out: Activity.
Chain of CYP2C9 (P11712 whole entry): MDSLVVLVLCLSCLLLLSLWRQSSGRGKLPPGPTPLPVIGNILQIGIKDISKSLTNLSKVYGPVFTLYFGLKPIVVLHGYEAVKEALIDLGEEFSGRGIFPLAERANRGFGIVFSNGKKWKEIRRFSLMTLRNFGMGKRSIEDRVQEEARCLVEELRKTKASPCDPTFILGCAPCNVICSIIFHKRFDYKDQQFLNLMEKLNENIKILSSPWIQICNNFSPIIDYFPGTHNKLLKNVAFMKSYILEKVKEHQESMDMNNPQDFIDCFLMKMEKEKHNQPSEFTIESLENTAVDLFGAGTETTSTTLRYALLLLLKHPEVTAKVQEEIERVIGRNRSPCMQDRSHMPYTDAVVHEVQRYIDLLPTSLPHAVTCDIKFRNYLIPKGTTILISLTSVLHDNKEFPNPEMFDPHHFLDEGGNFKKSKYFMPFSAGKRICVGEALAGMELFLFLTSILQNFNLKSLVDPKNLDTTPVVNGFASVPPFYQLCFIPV
The nature of data set [4]: Metabolic stability of the compound in human liver microsomes assessed as parent compound remaining measured after 30 mins. The class given is ADME, Microsome. The note with it: read-out: Stability.
The next data set addresses CYP3A4 (Homo sapiens, UniProt P08684). The experiment in a line: Inhibition of CYP3A4 (unknown origin) assessed as enzyme activity at 10 uM relative to control. In kind it is ADME. More on the design: scale not given: the % may be the effect or the level left. The note with it: read-out: Activity.
For data set [5], the target named is T2, Nuclear factor erythroid 2-related factor 2 (Homo sapiens, UniProt Q16236).
T2 sequence (Q16236 whole entry): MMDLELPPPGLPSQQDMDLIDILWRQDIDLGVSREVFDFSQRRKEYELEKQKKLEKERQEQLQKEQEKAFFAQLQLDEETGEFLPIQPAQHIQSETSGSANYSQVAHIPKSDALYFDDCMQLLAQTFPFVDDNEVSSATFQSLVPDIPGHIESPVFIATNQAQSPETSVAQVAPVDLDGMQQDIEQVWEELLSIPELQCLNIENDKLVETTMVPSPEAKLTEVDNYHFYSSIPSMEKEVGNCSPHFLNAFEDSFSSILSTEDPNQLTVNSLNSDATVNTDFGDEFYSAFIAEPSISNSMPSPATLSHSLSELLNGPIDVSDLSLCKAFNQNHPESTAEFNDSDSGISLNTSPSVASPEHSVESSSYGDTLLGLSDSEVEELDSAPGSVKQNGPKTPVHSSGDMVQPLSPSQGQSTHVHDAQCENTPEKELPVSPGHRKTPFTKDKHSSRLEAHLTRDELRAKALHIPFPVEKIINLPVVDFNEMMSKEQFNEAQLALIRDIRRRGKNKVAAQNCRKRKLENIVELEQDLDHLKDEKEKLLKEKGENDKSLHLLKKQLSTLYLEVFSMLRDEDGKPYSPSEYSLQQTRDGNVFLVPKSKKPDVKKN
The experiment in a line: Activation of Nrf2 in human U2OS cells co-expressing Keap1 assessed as induction of Nrf2 nuclear translocation incubated for 6 hrs by PathHunter chemiluminescence based analysis. The class given is cell-based.

Counter-ions that a name gives are not always drawn. Some results are limits rather than exact numbers.

Chain of CYP3A4 (P08684 whole entry): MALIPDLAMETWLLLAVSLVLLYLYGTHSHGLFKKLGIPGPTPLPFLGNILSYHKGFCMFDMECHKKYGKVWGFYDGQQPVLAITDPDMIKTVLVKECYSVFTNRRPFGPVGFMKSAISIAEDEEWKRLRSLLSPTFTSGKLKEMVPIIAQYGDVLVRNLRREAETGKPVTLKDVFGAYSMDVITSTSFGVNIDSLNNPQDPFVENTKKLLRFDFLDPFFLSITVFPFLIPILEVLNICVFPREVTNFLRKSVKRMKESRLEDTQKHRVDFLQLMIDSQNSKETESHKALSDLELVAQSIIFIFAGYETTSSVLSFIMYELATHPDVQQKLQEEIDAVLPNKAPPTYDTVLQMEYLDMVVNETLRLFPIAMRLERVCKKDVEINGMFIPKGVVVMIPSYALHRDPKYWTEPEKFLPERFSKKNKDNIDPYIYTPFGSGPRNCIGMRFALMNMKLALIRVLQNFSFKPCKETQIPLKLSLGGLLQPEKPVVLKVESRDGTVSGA

Usually EC50 stands for the midpoint of the concentration-response curve. As for `COc1ccc(S(=O)(=O)/C=C/c2ncccc2C(F)(F)F)nc1`, the activity at 10 µM on CYP2C19 is 21.7%; at CYP2D6, > 99%; at CYP1A2, 61.1%; at CYP2C9, > 99%; at CYP3A4 it was 88.9%. Further, the remaining at 0.5 h turned out to be 60.1% in [1], 96.2% in data set [2], 91.9% in [3] and 57.2% in [4]. In addition, in [5], the EC50 stood at 0.275 µM.
As to `COc1ccnc(S(=O)(=O)/C=C/c2ncccc2C(F)(F)F)c1`, the activity at 10 µM at CYP2C19 was 29.8%; at CYP2D6, > 99%; at CYP1A2, 72.2%; at CYP2C9 it was 31%; at CYP3A4 it was 83.2%. For the same molecule, the remaining at 0.5 h worked out at 19% in [1], 90.9% in data set [2], 82.4% in [3] and 63.2% in data set [4]. The EC50 in [5] was determined as 0.174 µM.
Turning to `COc1cccc(S(=O)(=O)/C=C/c2ncccc2C(F)(F)F)n1`, the activity at 10 µM was 15.1% at CYP2C19; > 99% on CYP2D6; 18.2% on CYP1A2; 81.9% on CYP2C9; 32.5% on CYP3A4. In addition, the remaining at 0.5 h was determined as 4% in data set [1], 94.2% in data set [2], 82.7% in data set [3] and 38.8% in data set [4]. The EC50 in [5] amounted to 0.194 µM.
In the case of `COc1cccc(S(=O)(=O)/C=C/c2ccccc2Cl)n1`, the activity at 10 µM on CYP2C19 was 7.7%; on CYP2D6 it was 97.6%; on CYP1A2, 6.73%; on CYP2C9 it was > 99%; at CYP3A4, 28%. Further, the remaining at 0.5 h in [1] is 4.4%; in [2], > 99%; in data set [3] it was 98.9%; in data set [4], 13.8%. In addition, in data set [5], the EC50 is 0.231 µM.
In the case of `COc1ccnc(S(=O)(=O)/C=C/c2ccnc(Cl)c2)c1`, the activity at 10 µM at CYP2C19 is 24.3%; at CYP2D6 it was > 99%; at CYP1A2, 89.6%; on CYP2C9, > 99%; on CYP3A4, > 99%. The remaining at 0.5 h in [1] was 64.5%; in [2] it was 93.1%; in [3], 59%; in [4], 88.4%. In [5], the EC50 was 0.4 µM.
For the molecule `COc1ccncc1S(=O)(=O)/C=C/c1ncccc1Cl`, the activity at 10 µM was 42.9% on CYP2C19; 88.7% on CYP2D6; 79.5% at CYP1A2; > 99% at CYP2C9; 15.7% at CYP3A4. In addition, the remaining at 0.5 h in data set [1] amounted to 77.1%; in data set [4], 91.4%. Further, the EC50 in data set [5] is 0.051 µM.
Regarding `COc1cccnc1S(=O)(=O)/C=C/c1ncccc1C(F)(F)F`, the activity at 10 µM at CYP2C19 is 60.5%; at CYP2D6, > 99%; on CYP1A2 it was 72.6%; at CYP2C9 it was 69.7%; on CYP3A4, 36.4%. Moreover, the remaining at 0.5 h in data set [1] came to 64.7%; in data set [2] it was 94%; in data set [3], 84.1%; in [4], 87.8%. The EC50 in [5] was 0.107 µM.
For `COC(=O)/C=C/C(=O)OC` [DIMETHYL FUMARATE], in [5], the EC50 worked out at 5.11 µM.
With `COc1ncccc1S(=O)(=O)/C=C/c1ccccc1C(F)(F)F`, the activity at 10 µM was 16.2% on CYP2C19; 94.4% on CYP2D6; 12.4% at CYP1A2; > 99% on CYP2C9; 51.7% on CYP3A4. The remaining at 0.5 h in data set [1] was 48.1%; in data set [2], 91.3%; in data set [3] it was 89.3%; in data set [4], 75.2%. In addition, the EC50 in data set [5] is 0.749 µM.
With `COc1ccncc1S(=O)(=O)/C=C/c1ccccc1C(F)(F)F`, the activity at 10 µM at CYP2C19 was 23.5%; on CYP2D6, 85.1%; on CYP1A2, 12.1%; at CYP2C9, > 99%; on CYP3A4, 12%. For the same molecule, the remaining at 0.5 h in [1] worked out at 71.9%; in [4] it was 82.9%. Also, the EC50 in data set [5] turned out to be 0.248 µM.
As for `COc1cccnc1C(=O)/C=C/c1ccccc1C(F)(F)F`, the activity at 10 µM at CYP2C19 was 8.2%; on CYP2D6 it was 91.3%; at CYP1A2, 3.7%; on CYP2C9, > 99%; at CYP3A4 it was 27.4%. For the same molecule, the remaining at 0.5 h in data set [1] stood at 1.4%; in data set [2] it was 96.5%; in [3], 94.3%; in data set [4], 1%.
Turning to `COc1cccnc1[S+]([O-])/C=C/c1ccccc1C(F)(F)F` (stereo unspecified), the activity at 10 µM is 32.9% on CYP2C19; 95.9% on CYP2D6; 32.8% at CYP1A2; 56.3% on CYP2C9; 36.9% on CYP3A4. The remaining at 0.5 h was 5% in [1], > 99% in data set [2], > 99% in data set [3] and 46.3% in data set [4].
On to `COc1ccc([S+]([O-])/C=C/c2ccccc2C(F)(F)F)nc1` (stereo unspecified), for which the activity at 10 µM is 2.5% on CYP2C19; 94% at CYP2D6; 48.8% at CYP1A2; > 99% at CYP2C9; 78% at CYP3A4. Further, the remaining at 0.5 h was 1% in data set [1], > 99% in data set [2], 89% in data set [3] and 28% in data set [4].
With `COc1cccc([S+]([O-])/C=C/c2ccccc2C(F)(F)F)n1` (stereo unspecified), the activity at 10 µM on CYP2C19 turned out to be 5.5%; on CYP2D6, 72.6%; on CYP1A2 it was 4.9%; at CYP2C9 it was 78.3%; at CYP3A4, 38.3%. Also, the remaining at 0.5 h in data set [1] worked out at 1.1%; in [2] it was 82.4%; in data set [3], 89.8%; in data set [4], 6.3%.
On to `COc1ccnc([S+]([O-])/C=C/c2ccccc2C(F)(F)F)c1` (stereo unspecified), for which the activity at 10 µM at CYP2C19 worked out at 6.4%; at CYP2D6, 85.7%; at CYP1A2, 34.3%; on CYP2C9, 81.9%; at CYP3A4, 45.1%. Moreover, the remaining at 0.5 h in data set [1] amounted to 1.4%; in data set [2], 96%; in [3] it was 92.2%; in [4], 40.6%.
`COC(=O)/C=C/C(=O)O` [MONOMETHYL FUMARATE]: the EC50 in data set [5] is > 10 µM.
Regarding `COc1cccnc1/C=C/S(=O)(=O)c1ncccc1OC`, the activity at 10 µM at CYP2C19 was > 99%; at CYP2D6 it was 91.9%; at CYP1A2, 82.1%; at CYP2C9 it was 66.5%; on CYP3A4, > 99%. Further, the remaining at 0.5 h in data set [1] and in [4] was > 99% throughout. Moreover, the EC50 in data set [5] amounted to 1.87 µM.
